Assay results reported in PMC11538350, “Synthetic studies on the tetrasubstituted D-ring of cystobactamids lead to potent terephthalic acid antibiotics” (Communications Chemistry, 2024).
≈ marks a conversion by molar mass, not a printed value.

Tests used:
[1] = test system: A. baum. CIP-107292; assay: MIC assay; assay type: cell-based; details: Acinetobacter baumannii, CIP107292; read-out: MIC A. baum. CIP-107292
Description: (§1) All cystobactamids were evaluated in MIC-assays on a panel of representative ESKAPE strains with focus on A. baumannii (Tables 1 and 2). Compared to our previous work[10],[17],[18], we specifically included more challenging test strains with known resistances against gyrase inhibitors.
(§2) 2.1 Materials and Methods
(§3) Strains were cultivated according to standard procedures. Bacterial cryo-cultures were
(§4) resuspended into fresh MHBII (cation adjusted) medium. The resuspension
(§5) assay plate (Corning, #3788).
(§6) in parallel as a positive control. […]

[2] = test system: A. baum. ATCC BAA-1710; assay: MIC assay; assay type: cell-based; details: Acinetobacter baumannii, ATCCBAA1710; read-out: MIC A. baum. ATCC BAA-1710
Description: as §1, §2, §3, §4, §5, §6

[3] = test system: K. pneum. R-1525; assay: MIC assay; assay type: cell-based; details: Klebsiella pneumoniae; read-out: MIC K. pneum. R-1525
Description: as §1, §2, §3, §4, §5, §6

[4] = test system: P. ae. PA14ΔmexAB; assay: MIC assay; assay type: cell-based; details: Pseudomonas aeruginosa, read-out: MIC P. ae. PA14ΔmexAB
Description: as §1, §2, §3, §4, §5, §6

[5] = test system: A. baum. R835; assay: MIC assay; assay type: cell-based; details: Acinetobacter baumannii; read-out: MIC A. baum. R835
Description: as §1, §2, §3, §4, §5, §6

[6] = test system: E. coli LM705; assay: MIC assay; assay type: cell-based; details: Escherichia coli, LM705, read-out: MIC E. coli LM705
Description: as §1, §2, §3, §4, §5, §6

[7] = test system: S. pneum. DSM-11865 (PRSP); assay: MIC assay; assay type: cell-based; details: Streptococcus pneumoniae; read-out: MIC S. pneum. DSM-11865 (PRSP)
Description: as §1, §2, §3, §4, §5, §6

[8] = test system: S. aur. ATCC-29213; assay: MIC assay; assay type: cell-based; details: Staphylococcus aureus, ATCC29213; reference strain; read-out: MIC S. aur. ATCC-29213
Description: as §1, §2, §3, §4, §5, §6

[9] = test system: A. baum. CIP-105742; assay: MIC assay; assay type: cell-based; details: Acinetobacter baumannii, CIP105742; read-out: MIC A. baum. CIP-105742
Description: as §1, §2, §3, §4, §5, §6

[10] = test system: A. baum. DSM-30008; assay: MIC assay; assay type: cell-based; details: Acinetobacter baumannii, DSM30008; reference strain; read-out: MIC A. baum. DSM-30008
Description: as §1, §2, §3, §4, §5, §6

[11] = test system: P. ae. PA14; assay: MIC assay; assay type: cell-based; details: Pseudomonas aeruginosa, PA14; reference strain; read-out: MIC P. ae. PA14
Description: as §1, §2, §3, §4, §5, §6

[12] = test system: K. pneum. CIP-104298; assay: MIC assay; assay type: cell-based; details: Klebsiella pneumoniae, CIP104298; reference strain; read-out: MIC K. pneum. CIP-104298
Description: as §1, §2, §3, §4, §5, §6

[13] = test system: E. coli ATCC-25922; assay: MIC assay; assay type: cell-based; details: Escherichia coli, ATCC25922; reference strain; read-out: MIC E. coli ATCC-25922
Description: as §1, §2, §3, §4, §5, §6

[14] = test system: E. faec. DSM-17050 (VRE); assay: MIC assay; assay type: cell-based, Enterococcus faecium; details: Enterococcus; read-out: MIC E. faec. DSM-17050 (VRE)
Description: as §1, §2, §3, §4, §5, §6

[15] = test system: E. ae. CIP 106754; assay: MIC assay; assay type: cell-based, Enterobacter aerogenes; details: Klebsiella aerogenes, CIP106754, read-out: MIC E. ae. CIP 106754
Description: as §1, §2, §3, §4, §5, §6

[16] = test system: K. pneum. KP10581; assay: MIC assay; assay type: cell-based; details: Klebsiella pneumoniae; read-out: MIC K. pneum. KP10581
Description: as §1, §2, §3, §4, §5, §6

[17] = test system: E. cloacae ATCC BAA-2468; assay: MIC assay; assay type: cell-based; details: Enterobacter cloacae, ATCCBAA2468; read-out: MIC E. cloacae ATCC BAA-2468
Description: as §1, §2, §3, §4, §5, §6

[18] = test system: ESKAPE strains; assay: MIC-assays on a panel of representative ESKAPE strains, summary in words; assay type: cell-based; details: summary of the MIC tables
Description: as §1, §2, §3, §4, §5, §6

| SMILES | MIC [1] [µg/mL] | MIC [2] [µg/mL] | MIC [3] [µg/mL] | MIC [4] [µg/mL] | MIC [5] [µg/mL] | MIC [6] [µg/mL] | MIC [7] [µg/mL] | MIC [8] [µg/mL] | MIC [9] [µg/mL] | MIC [10] [µg/mL] | MIC [11] [µg/mL] | MIC [12] [µg/mL] | MIC [13] [µg/mL] | MIC [14] [µg/mL] | MIC [15] [µg/mL] | MIC [16] [µg/mL] | MIC [17] [µg/mL] | antibacterial activity on the pathogen panel, in words [18] |
| --- | --- | --- | --- | --- | --- | --- | --- | --- | --- | --- | --- | --- | --- | --- | --- | --- | --- | --- |
| O=C(O)c1cn(C2CC2)c2cc(N3CCNCC3)c(F)cc2c1=O [CIP, ciprofloxacin, reference compound] | 64 (≈ 193 µM) | 32 (≈ 96.6 µM) | > 64 | 0.006 to 0.1 (≈ 0.0181 to 0.302 µM) | 32 (≈ 96.6 µM) | > 6.4 | > 6.4 | 0.2 to 1 (≈ 0.604 to 3.02 µM) | 0.03 to 0.25 (≈ 0.0905 to 0.754 µM) | 0.05 to 0.25 (≈ 0.151 to 0.754 µM) | 0.025 to 0.2 (≈ 0.0754 to 0.604 µM) | 0.025 to 0.05 (≈ 0.0754 to 0.151 µM) | 0.01 to 0.03 (≈ 0.0302 to 0.0905 µM) | 0.05 to 4 (≈ 0.151 to 12.1 µM) | > 6.4 |  |  |  |
| CO[C@@H](C(N)=O)[C@H](NC(=O)c1ccc(NC(=O)c2ccc(C#N)cc2)cc1)C(=O)Nc1ccc(C(=O)Nc2ccc(C(=O)Nc3ccc(C(=O)O)cc3)c(O)c2OC(C)C)cc1 [CN861 1, reference compound] | > 64 | 8 (≈ 9.5 µM) | 16 (≈ 19 µM) | 1 (≈ 1.19 µM) | 64 (≈ 76 µM) | 0.64 (≈ 0.76 µM) |  | 0.125 (≈ 0.148 µM) | 0.25 (≈ 0.297 µM) | 1 (≈ 1.19 µM) | 16 (≈ 19 µM) | 16 (≈ 19 µM) | 0.25 (≈ 0.297 µM) |  | 4 (≈ 4.75 µM) | 2 (≈ 2.38 µM) | 32 (≈ 38 µM) |  |
| C#CCC(NC(=O)c1ccc(NC(=O)c2ccc(C#N)cc2)cc1)C(=O)Nc1ccc(C(=O)Nc2ccc(C(=O)Nc3ccc(C(=O)O)cc3)c(O)c2OC(C)C)cc1 (stereo not drawn) [CN-CC-861 2, reference compound] | 0.5 to 1 (≈ 0.631 to 1.26 µM) | 0.06 to 0.25 (≈ 0.0757 to 0.315 µM) |  | 0.03 to 0.5 (≈ 0.0378 to 0.631 µM) | 1 (≈ 1.26 µM) | 0.03 to 0.2 (≈ 0.0378 to 0.252 µM) |  | 0.02 (≈ 0.0252 µM) | 0.02 (≈ 0.0252 µM) | 0.02 to 0.03 (≈ 0.0252 to 0.0378 µM) | 0.5 to 16 (≈ 0.631 to 20.2 µM) | 8 (≈ 10.1 µM) |  | < 0.03 | 0.125 to 4 (≈ 0.158 to 5.05 µM) | 0.06 to 0.25 (≈ 0.0757 to 0.315 µM) |  |  |
| C#CC[C@H](NC(=O)c1ccc(NC(=O)c2ccc(C#N)cc2)cc1)C(=O)Nc1ccc(C(=O)Nc2cc(O)c(C(=O)Nc3ccc(C(=O)O)cc3)cc2OC(C)C)cc1 [Cmpd. 3] | > 64 | > 64 | > 64 | > 64 | > 64 | > 64 | > 64 | > 64 | 2 (≈ 2.52 µM) | 1 (≈ 1.26 µM) | > 64 | > 64 | 1 (≈ 1.26 µM) | > 64 | > 64 | > 64 | > 64 |  |
| C#CCC(NC(=O)c1ccc(NC(=O)c2ccc(C#N)cc2)cc1)C(=O)Nc1ccc(C(=O)Nc2ccc(C(=O)Nc3ccc(C(=O)O)cc3)c(Cl)c2OC(C)C)cc1 (stereo not drawn) [Cmpd. 5] | > 8 | > 8 | > 64 | > 64 | > 8 | > 64 | > 64 | > 64 | > 8 | > 8 | > 64 | > 64 | > 64 | > 64 | > 64 | > 64 | > 64 | abolished the activity in all tested strains |
| C#CC[C@H](NC(=O)c1ccc(NC(=O)c2ccc(C#N)cc2)cc1)C(=O)Nc1ccc(C(=O)Nc2ccc(C(=O)Nc3ccc(C(=O)O)cc3)c(Br)c2OC(C)C)cc1 [Cmpd. 6] | > 8 | > 8 | > 64 | > 64 | > 8 | > 64 | > 64 | > 64 | > 8 | > 8 | > 64 | > 64 | > 64 | > 64 | > 64 | > 64 | > 64 | abolished the activity in all tested strains |
